In brackets after ≈: the same amount, converted by molar mass. Read-outs that look alike come from different tables or passages of the source.
Tests used:
Assay in all cases: Antibacterial spectrum, MIC by serial dilution on nutrient agar
Assay type in all cases: cell-based
[1] = system: Staphylococcus aureus Ap01; settings: 37° C., 17 hours, read-out: Minimum inhibitory concentration
[2] = system: Bacillus subtilis NRRL B-558; settings: read-out: Minimum inhibitory concentration
[3] = system: Bacillus subtilis PCI 219; settings: read-out: Minimum inhibitory concentration
[4] = system: Escherichia coli K-12 LA290 R64; settings: K12LA290R64, 17 h, read-out: Minimum inhibitory concentration
Escherichia coli K-12 = settings: K12, 37° C., 17 hours, read-out: Minimum inhibitory concentration
[5] = system: Pseudomonas aeruginosa ROS 134/PU21; settings: ROS134/PU21, 17 h, read-out: Minimum inhibitory concentration
[6] = system: Escherichia coli K-12 LA290 R55; settings: K12LA290R55, 17 h, read-out: Minimum inhibitory concentration
[7] = system: Shigella dysenteriae JS11910; settings: JS11910, 17 h, read-out: Minimum inhibitory concentration
[8] = system: Pseudomonas aeruginosa K-Ps 102; settings: read-out: Minimum inhibitory concentration
Proteus vulgaris OX19 = settings: 37° C., 17 hours, read-out: Minimum inhibitory concentration
[9] = system: Pseudomonas aeruginosa 21-75; settings: 2175, 37° C., 17 hours, read-out: Minimum inhibitory concentration
[10] = system: Pseudomonas aeruginosa 99; settings: 37° C., 17 hours, read-out: Minimum inhibitory concentration
Sarcina lutea PCI 1001 = settings: Micrococcus luteus, PCI1001, 37° C., 17 hours, read-out: Minimum inhibitory concentration
[11] = system: Pseudomonas aeruginosa A3; settings: 37° C., 17 hours, read-out: Minimum inhibitory concentration
[12] = system: Pseudomonas aeruginosa H11; settings: 37° C., 17 hours, read-out: Minimum inhibitory concentration
[13] = system: Pseudomonas aeruginosa H9; settings: 37° C., 17 hours, read-out: Minimum inhibitory concentration
Serratia marcescens = settings: read-out: Minimum inhibitory concentration
[14] = system: Bacillus cereus ATCC 10702; settings: read-out: Minimum inhibitory concentration
[15] = system: Escherichia coli K-12 ML1629; settings: K12ML1629, 37° C., 17 hours, read-out: Minimum inhibitory concentration
Procedure: (§1) The antibacterial spectra of 3-O-demethylistamycin B.sesquicarbonate and 3-O-demethyl-2"-N-formimidoylistamycin B.disulphate.trihydrate are shown in Table 2, along with that of istamycin B for comparison purposes.
(§2) Minimum inhibitory concentrations (mcg/ml)*^1
(§3) *^1 Determined according to a standard serial dilution method on
(§4) nutrient agar plates which were incubated at 37° C. for 17 hours.

Shigella sonnei JS11746 = settings: 37° C., 17 hours, read-out: Minimum inhibitory concentration
Procedure: as §1, §2, §3, §4

[16] = system: Shigella flexneri 4B JS11811; settings: 4BJS11811, 37° C., 17 hours, read-out: Minimum inhibitory concentration
Procedure: as §1, §2, §3, §4

[17] = system: Klebsiella pneumoniae 22#3038; settings: 37° C., 17 hours, read-out: Minimum inhibitory concentration
Procedure: as §1, §2, §3, §4

[18] = system: Escherichia coli K-12 ML1630; settings: K12ML1630, 37° C., 17 hours, read-out: Minimum inhibitory concentration
Procedure: as §1, §2, §3, §4

[19] = system: Escherichia coli K-12 C600 R135; settings: K12C600R135, 37° C., 17 hours, read-out: Minimum inhibitory concentration
Procedure: as §1, §2, §3, §4

[20] = system: Mycobacterium smegmatis ATCC 607; settings: Mycolicibacterium smegmatis, read-out: Minimum inhibitory concentration
Serratia sp. 4 = settings: 37° C., 17 hours, read-out: Minimum inhibitory concentration
[21] = system: Escherichia coli K-12 ML1410; settings: read-out: Minimum inhibitory concentration
Salmonella typhi T-63 = settings: Salmonella enterica, 17 h, read-out: Minimum inhibitory concentration
Proteus rettgeri GN311 = settings: Providencia rettgeri, 37° C., 17 hours, read-out: Minimum inhibitory concentration
[22] = system: Pseudomonas aeruginosa No. 12; settings: 37° C., 17 hours, read-out: Minimum inhibitory concentration
[23] = system: Escherichia coli K-12 ML1410 R81; settings: K12ML1410R81, 17 h, read-out: Minimum inhibitory concentration
Escherichia coli JR255 = settings: read-out: Minimum inhibitory concentration
[24] = system: Escherichia coli K-12 J5R11-2; settings: read-out: Minimum inhibitory concentration
[25] = system: Escherichia coli K-12 LA290 R56; settings: K12LA290R56, 17 h, read-out: Minimum inhibitory concentration
Proteus rettgeri GN466 = settings: Providencia rettgeri, read-out: Minimum inhibitory concentration
[26] = nutrient agar, 37° C., 17 hours
[27] = NRRLB558, Bacillus subtilis NRRL B-558, nutrient agar, 37° C., 17 hours
[28] = PCI219, Bacillus subtilis PCI 219, nutrient agar, 37° C., 17 hours
[29] = KPS102, Pseudomonas aeruginosa K-Ps 102, nutrient agar, 37° C., 17 hours
[30] = ATCC10702, Bacillus cereus ATCC 10702, nutrient agar, 37° C., 17 hours
[31] = ATCC607, Mycobacterium smegmatis ATCC 607, nutrient agar, 37° C., 17 hours
[32] = Escherichia coli, K12ML1410, 17 h
[33] = Escherichia coli JR255, nutrient agar, 37° C., 17 hours
[34] = K12J5R112, Escherichia coli K-12 J5R11-2, nutrient agar, 37° C., 17 hours

Compound | MIC [1] [µg/mL] | MIC [4] [µg/mL] | MIC (Escherichia coli K-12) [µg/mL] | MIC [5] [µg/mL] | MIC [6] [µg/mL] | MIC [7] [µg/mL] | MIC (Proteus vulgaris OX19) [µg/mL] | MIC [9] [µg/mL] | MIC [10] [µg/mL] | MIC (Sarcina lutea PCI 1001) [µg/mL] | MIC [11] [µg/mL] | MIC [12] [µg/mL] | MIC [13] [µg/mL] | MIC [15] [µg/mL] | MIC (Shigella sonnei JS11746) [µg/mL] | MIC [16] [µg/mL] | MIC [17] [µg/mL] | MIC [18] [µg/mL] | MIC [19] [µg/mL] | MIC (Serratia sp. 4) [µg/mL] | also measured
CNCC1CCC(N)C(OC2C(N)CC(O)C(N(C)C(=O)CN)C2O)O1 (stereo not drawn) [3-O-Demethylistamycin B] | 0.78 (≈ 2.08 µM) | 3.13 (≈ 8.34 µM) | 3.13 (≈ 8.34 µM) | 50 (≈ 133 µM) | 6.25 (≈ 16.6 µM) | 6.25 (≈ 16.6 µM) | 0.78 (≈ 2.08 µM) | 50 (≈ 133 µM) | 25 (≈ 66.6 µM) | 0.39 (≈ 1.04 µM) | 3.13 (≈ 8.34 µM) | 25 (≈ 66.6 µM) | 25 (≈ 66.6 µM) | 3.13 (≈ 8.34 µM) | 6.25 (≈ 16.6 µM) | 6.25 (≈ 16.6 µM) | 6.25 (≈ 16.6 µM) | 3.13 (≈ 8.34 µM) | 6.25 (≈ 16.6 µM) | 12.5 (≈ 33.3 µM) | MIC ([2]; Bacillus subtilis, NRRLB558, 17 h): < 0.2 µg/mL; MIC ([3]; Bacillus subtilis, PCI219, 17 h): < 0.2 µg/mL; MIC ([8]; Pseudomonas aeruginosa, KPS102, 17 h): 6.25 µg/mL (≈ 16.6 µM); MIC (Serratia marcescens; [26]): 12.5 µg/mL (≈ 33.3 µM); MIC ([14]; Bacillus cereus, ATCC10702, 17 h): 1.56 µg/mL (≈ 4.15 µM); MIC ([20]; ATCC607, 17 h): < 0.2 µg/mL; MIC ([21]; K12ML1410, Escherichia coli K-12 ML1410, nutrient agar, 37° C., 17 hours): 3.13 µg/mL (≈ 8.34 µM); MIC (Salmonella typhi T-63): 1.56 µg/mL (≈ 4.15 µM); MIC (Proteus rettgeri GN311): 12.5 µg/mL (≈ 33.3 µM); MIC [22]: 12.5 µg/mL (≈ 33.3 µM); MIC [23]: 3.13 µg/mL (≈ 8.34 µM); MIC (Escherichia coli JR255; Escherichia coli, JR255, 17 h): 1.56 µg/mL (≈ 4.15 µM); MIC ([24]; Escherichia coli, K12J5R112, 17 h): 1.56 µg/mL (≈ 4.15 µM); MIC [25]: 3.13 µg/mL (≈ 8.34 µM); MIC (Proteus rettgeri GN466; GN466, 17 h): 6.25 µg/mL (≈ 16.6 µM)
CNCC1CCC(N)C(OC2C(N)CC(O)C(N(C)C(=O)CNC=N)C2O)O1 (stereo not drawn) [3-O-Demethyl-2"-N-formimidoylistamycin B] | 0.78 (≈ 1.94 µM) | 1.56 (≈ 3.88 µM) | 1.56 (≈ 3.88 µM) | 50 (≈ 124 µM) | 1.56 (≈ 3.88 µM) | 3.13 (≈ 7.78 µM) | 0.39 (≈ 0.969 µM) | 25 (≈ 62.1 µM) | 100 (≈ 248 µM) | < 0.2 | 1.56 (≈ 3.88 µM) | 25 (≈ 62.1 µM) | 12.5 (≈ 31.1 µM) | 1.56 (≈ 3.88 µM) | 3.13 (≈ 7.78 µM) | 3.13 (≈ 7.78 µM) | 3.13 (≈ 7.78 µM) | 1.56 (≈ 3.88 µM) | 12.5 (≈ 31.1 µM) | 6.25 (≈ 15.5 µM) | MIC [2, 27]: < 0.2 µg/mL; MIC [3, 28]: < 0.2 µg/mL; MIC [8, 29]: 12.5 µg/mL (≈ 31.1 µM); MIC (Serratia marcescens; 17 h): 3.13 µg/mL (≈ 7.78 µM); MIC [14, 30]: 1.56 µg/mL (≈ 3.88 µM); MIC [20, 31]: < 0.2 µg/mL; MIC [21, 32]: 3.13 µg/mL (≈ 7.78 µM); MIC (Salmonella typhi T-63): 0.78 µg/mL (≈ 1.94 µM); MIC (Proteus rettgeri GN311): 12.5 µg/mL (≈ 31.1 µM); MIC [22]: 12.5 µg/mL (≈ 31.1 µM); MIC [23]: 1.56 µg/mL (≈ 3.88 µM); MIC (Escherichia coli JR255; [33]): 0.78 µg/mL (≈ 1.94 µM); MIC [24, 34]: 1.56 µg/mL (≈ 3.88 µM); MIC [25]: 1.56 µg/mL (≈ 3.88 µM); MIC (Proteus rettgeri GN466; GN466, 17 h): 3.13 µg/mL (≈ 7.78 µM)
CNCC1CCC(N)C(OC2C(N)CC(OC)C(N(C)C(=O)CN)C2O)O1 (stereo not drawn) [Istamycin B, istamycin B] | 0.78 (≈ 2 µM) | 1.56 (≈ 4.01 µM) | 1.56 (≈ 4.01 µM) | > 100 | 3.13 (≈ 8.04 µM) | 3.13 (≈ 8.04 µM) | 0.39 (≈ 1 µM) | 100 (≈ 257 µM) | > 100 | 0.2 (≈ 0.513 µM) | 6.25 (≈ 16 µM) | 50 (≈ 128 µM) | 50 (≈ 128 µM) | 1.56 (≈ 4.01 µM) | 3.13 (≈ 8.04 µM) | 3.13 (≈ 8.04 µM) | 3.13 (≈ 8.04 µM) | 1.56 (≈ 4.01 µM) | 12.5 (≈ 32.1 µM) | 50 (≈ 128 µM) | MIC [2, 27]: < 0.2 µg/mL; MIC [3, 28]: < 0.2 µg/mL; MIC [8, 29]: 50 µg/mL (≈ 128 µM); MIC (Serratia marcescens; [26]): 6.25 µg/mL (≈ 16 µM); MIC [14, 30]: 1.56 µg/mL (≈ 4.01 µM); MIC [20, 31]: 0.78 µg/mL (≈ 2 µM); MIC [21, 32]: 3.13 µg/mL (≈ 8.04 µM); MIC (Salmonella typhi T-63): 0.39 µg/mL (≈ 1 µM); MIC (Proteus rettgeri GN311): 12.5 µg/mL (≈ 32.1 µM); MIC [22]: 100 µg/mL (≈ 257 µM); MIC [23]: 1.56 µg/mL (≈ 4.01 µM); MIC (Escherichia coli JR255; [33]): 0.78 µg/mL (≈ 2 µM); MIC [24, 34]: 1.56 µg/mL (≈ 4.01 µM); MIC [25]: 1.56 µg/mL (≈ 4.01 µM); MIC (Proteus rettgeri GN466; Proteus rettgeri GN466, nutrient agar, 37° C., 17 hours): 6.25 µg/mL (≈ 16 µM)

Source: US4499083A, “3-O-Demethyl derivatives of the istamycin B series of compounds” (Zaidan Hojin Biseibutsu Kagaku Kenkyu Kai, priority 1980, dated 1985)
